# Measurements: US4228285A, “14-Hydroxy-6-oxamorphinans and 14-hydroxy-6-oxaisomorphinans” (priority 1979, dated 1980)
# Where two headings read alike, the source gives them in different places.
# Key:
# [1] = oxymorphone-induced Straub tail test (oxymorphone antagonist activity); assay type: in vivo; details: for antagonist potency relative to butorphanol, Straub tail test: vs butorphanol
# Description: (§1) Table 2 compares the oxymorphone and morphine antagonist activity of two of the preferred embodiments of this invention with the antagonist activity of butorphanol, in the standard oxymorphone-induced Straub tail test and the morphine antagonist rat tail flick test. In the Straub tail test, subcutaneously, BL-5951 and BL-5961 were about 5 times and about 1.6 times, respectively, as potent as butorphanol. Orally, they were about 55 times and about 1.7 times, respectively, as potent as butorphanol.
# [2] = morphine antagonist rat tail flick test; assay type: in vivo; details: subcutaneous; for ED50: sc
# Description: as §1
# [3] = assay type: in vivo; details: subcutaneous
# [4] = assay type: in vivo; details: for agonist potency relative to butorphanol / agonist potency relative to morphine sulfate: mice; for agonist potency relative to butorphanol: vs butorphanol; for agonist potency relative to morphine sulfate: vs morphine sulfate
# [5] = oral, read-out: Antagonist Activity ED50, Oxymorphone-induced Straub Tail, PO
# [6] = sc, subcutaneous, read-out: Antagonist Activity ED50, Oxymorphone-induced Straub Tail, SC
Compound,"antagonist potency relative to butorphanol, Straub tail test ([1]; oral)","ED50 [1, 5]","ED50 [1, 6]","antagonist potency relative to butorphanol, Straub tail test ([1]; subcutaneous)",ED50 [2],"antagonist potency relative to butorphanol, rat tail flick test (in words) ([2]; vs butorphanol)","agonist potency relative to butorphanol ([3]; rats, vs butorphanol)","agonist potency relative to morphine sulfate ([3]; rats, vs morphine sulfate)","Agonist Activity ED50, Rats (SC) [3]",agonist potency relative to butorphanol ([4]; oral),agonist potency relative to morphine sulfate ([4]; oral),agonist potency relative to butorphanol ([4]; subcutaneous),agonist potency relative to morphine sulfate ([4]; subcutaneous),"Agonist Activity ED50, Mice (PO) ([4]; oral)","Agonist Activity ED50, Mice (SC) ([4]; subcutaneous)","antagonist potency relative to butorphanol, rat tail flick test ([2]; vs butorphanol)"
"Oc1ccc2c(c1)[C@]13CCN(CC4CCC4)[C@H](C2)[C@]1(O)CCOC3 (racemic) [BL-5961, 17-Cyclobutylmethyl-3,14β-dihydroxy-6-oxamorphinan]",about 1.7 times,~32 mg/kg,0.61 mg/kg,about 1.6 times,~0.4 mg/kg,about equipotent,about equipotent,about 4 times,0.041 mg/kg,about 2.5 times,about 1.4 times,about 1.4 times,about 7 times,2.2 mg/kg,0.037 mg/kg,
"Oc1ccc2c(c1)[C@@]13CCCC[C@@]1(O)[C@@H](C2)N(CC1CCC1)CC3 [butorphanol, reference compound]",,55 mg/kg,0.98 mg/kg,,0.43 mg/kg,,,,0.040 mg/kg,,,,,5.6 mg/kg,0.051 mg/kg,
"Oc1ccc2c(c1)[C@]13CCN(CC4CC4)[C@H](C2)[C@]1(O)CCOC3 (racemic) [BL-5951, 17-Cyclopropylmethyl-3,14β-dihydroxy-6-oxamorphinan]",about 55 times,~1 mg/kg,~0.2 mg/kg,about 5 times,~0.09 mg/kg,,,,,,,,,,,about 4.8 times
"CN1CC[C@]23COC(C)(C)C[C@@]2(O)[C@H]1Cc1ccc(O)cc13 (racemic) [BL-6021, 3,14β-Dihydroxy-7,7,17-trimethyl-6-oxamorphinan]",,,,,,,,,,,,about 1.4 times,about 7 times,,0.037 mg/kg,
